According to patent publication EP0395312B1, “Piperazine derivatives” (JOHN WYETH & BROTHER LIMITED, priority 1989, dated 1990):
Read-outs that look alike come from different tables or passages of the source.

Columns and labels:
5-HT1A receptor [1] = target: T1, 5-HT1A receptor (Rattus norvegicus, UniProt P19327); experiment: 5-HT1A receptor binding activity in rat hippocampal membrane homogenate
T1 construct: rat hippocampal membrane homogenate; from tissue; host or cells: rat hippocampus membrane homogenate
T1 sequence (P19327 1-422): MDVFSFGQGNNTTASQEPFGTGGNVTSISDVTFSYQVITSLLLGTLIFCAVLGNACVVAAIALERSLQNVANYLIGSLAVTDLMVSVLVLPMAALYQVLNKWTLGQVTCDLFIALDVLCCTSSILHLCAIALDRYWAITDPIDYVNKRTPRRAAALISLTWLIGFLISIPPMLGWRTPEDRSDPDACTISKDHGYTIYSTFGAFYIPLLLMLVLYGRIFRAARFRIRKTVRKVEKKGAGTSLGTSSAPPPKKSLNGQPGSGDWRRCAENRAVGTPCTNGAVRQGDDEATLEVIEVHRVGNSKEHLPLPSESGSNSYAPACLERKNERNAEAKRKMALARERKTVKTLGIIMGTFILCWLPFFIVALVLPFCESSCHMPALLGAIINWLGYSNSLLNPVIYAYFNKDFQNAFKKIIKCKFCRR
Experimental: The compounds of the invention were tested for 5-HT1A receptor binding activity in rat hippocampal membrane homogenate by the method of B S Alexander and M D Wood, J Pharm Pharmarol, 1988, 40, 888-891.

D2 receptor sites = D2 receptor sites (Homo sapiens, UniProt P14416); experiment: Affinity for D2 receptor sites (procedure of Hancock et al); assay type: binding; details: read-out: Affinity for D2 site IC50
Sequence of D2 receptor sites (P14416 whole entry): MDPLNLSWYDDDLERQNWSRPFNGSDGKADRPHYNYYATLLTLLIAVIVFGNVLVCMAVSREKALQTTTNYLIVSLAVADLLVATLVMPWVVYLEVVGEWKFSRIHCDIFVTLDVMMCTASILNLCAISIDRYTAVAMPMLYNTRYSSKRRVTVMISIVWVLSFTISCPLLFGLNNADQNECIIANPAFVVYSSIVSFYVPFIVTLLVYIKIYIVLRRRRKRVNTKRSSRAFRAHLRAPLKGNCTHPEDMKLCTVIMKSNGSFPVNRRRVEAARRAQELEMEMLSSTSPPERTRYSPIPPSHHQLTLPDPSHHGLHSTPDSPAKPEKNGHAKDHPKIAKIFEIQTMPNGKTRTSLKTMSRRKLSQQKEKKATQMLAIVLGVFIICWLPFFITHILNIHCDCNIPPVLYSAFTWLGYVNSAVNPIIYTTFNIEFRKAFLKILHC

5-HT1A receptor [2] = target: T2, 5-HT1A receptor (Cavia porcellus, UniProt A0A286Y074); experiment: 5-HT1A receptor antagonism: antagonism of 5-carboxamidotryptamine in isolated ileum in vitro; parameters: species or system guine-pig; details: guinea-pig ileum in vitro, read-out: pA2 (converted)
T2 construct: in the guine-pig ileum in in vitro; from tissue; host or cells: guinea-pig isolated ileum
T2 sequence (A0A286Y074 1-421): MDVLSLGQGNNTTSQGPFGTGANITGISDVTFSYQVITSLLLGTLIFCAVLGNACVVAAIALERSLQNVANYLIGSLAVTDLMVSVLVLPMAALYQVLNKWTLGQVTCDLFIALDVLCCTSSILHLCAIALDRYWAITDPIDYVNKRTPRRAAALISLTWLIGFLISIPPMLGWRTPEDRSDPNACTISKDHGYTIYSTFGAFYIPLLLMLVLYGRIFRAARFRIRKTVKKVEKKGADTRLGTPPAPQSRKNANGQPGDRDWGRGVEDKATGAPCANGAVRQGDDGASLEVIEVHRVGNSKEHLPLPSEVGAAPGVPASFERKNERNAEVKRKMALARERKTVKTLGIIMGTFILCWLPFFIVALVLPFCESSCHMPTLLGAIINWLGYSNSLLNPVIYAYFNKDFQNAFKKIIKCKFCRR
Experimental: The compounds are tested for 5-HT1A receptor antagonism activity in a test involving the antagonism of 5-carboxamidotryptamine in the guine-pig ileum in in vitro (based upon the procedure of Fozard et al, Br J Pharmac 1985, 86, 601P).

α1 sites = experiment: Affinity for α1 sites (procedure of Morrow et al); assay type: binding; details: read-out: Affinity for α1 site IC50
[3] = 5-HT1A receptor binding, rat hippocampal membrane homogenate, read-out: IC50

Row | Compound | IC50 (5-HT1A receptor [1]; [3]) [nM] | IC50 (D2 receptor sites) [nM] | Kb (5-HT1A receptor [2]) [nM] | IC50 (α1 sites) [nM] | IC50 (5-HT1A receptor [1]) [nM]
1 | COc1ccccc1N1CCN(CC(C(=O)Nc2ccccc2)c2ccccc2)CC1 (stereo not shown) [Example 6, 3-{1-[4-(2-Methoxyphenyl)piperazinyl]}-2-phenyl-N-phenylpropanamide] | 127 | – | – | – | –
2 | CNC(=O)C(CN1CCN(c2ccccc2OC)CC1)c1ccccc1 (stereo not shown) [Example 8, methylamide] | 45 | – | – | – | –
3 | COc1ccccc1N1CCN(CC(C(=O)NC2CCCCC2)c2ccccc2)CC1 (stereo not shown) [Example 19] | 24 | 6290 | 126 | – | –
4 | COc1ccccc1N1CCN(CC(C(=O)NCCN2C(=O)CC3(CCCC3)CC2=O)c2ccccc2)CC1 (stereo not drawn) [Example 21, 8-{α-{1-[4-(2-methoxyphenyl)piperazinyl]methyl}phenylacetamidoethyl}-8-azaspiro[4.5]deca-7,9-dione] | 49 | – | 126 | 1200 | –
5 | COc1ccccc1N1CCN(CC(C(=O)N(C)C)c2ccccc2)CC1 (stereo not shown) [Example 22, N,N-Dimethyl-3-{1-[4-(2-methoxyphenyl)piperazinyl]}-2-phenylpropanamide] | 45 | – | – | 1230 | –
6 | COc1ccccc1N1CCN(CC(C(=O)NCc2ccccc2)c2ccccc2)CC1 (stereo not shown) [Example 23, 3-{1-[4-(2-Methoxyphenyl)piperazinyl]}-2-phenyl-N-(phenylmethyl)propanamide] | 59 | – | 100 | – | –
7 | O=C(NC1CCCCC1)C(CN1CCN(c2ncccn2)CC1)c1ccccc1 (stereo not shown) [Example 24, N-Cyclohexyl-2-phenyl-3-{1-[4-(2-pyrimidinyl)piperazinyl]}propanamide] | 75 | – | – | > 10000 | –
8 | COc1ccccc1N1CCN(CC(C(=O)OCC(C)C)c2ccccc2)CC1 (stereo not shown) [Example 26, 2-Methylpropyl 3-{1-[4-(2-methoxyphenyl)piperazinyl]}-2-phenylpropanoate] | 46 | – | 158 | 1090 | –
9 | CCOC(=O)C(Cc1ccccc1)CN1CCN(c2ccccc2OC)CC1 (stereo not shown) [Example 29, Ethyl 2-{1-[4-(2-methoxyphenyl)piperazinyl]methyl}-3-phenylpropanoate] | 25 | – | – | – | –
10 | COc1ccccc1N1CCN(CC(C(=O)NC2CC2)c2ccccc2)CC1 (stereo not shown) [Example 31, cyclopropyl-amide] | 28 | – | 39.8 | – | –
11 | COc1ccccc1N1CCN(CC(C(=O)N2CCCC2)c2ccccc2)CC1 (stereo not shown) [Example 32, 1-{3-{1-[4-(2-methoxyphenyl)piperazinyl]}-2-phenylpropionyl}pyrrolidine] | 21 | > 10000 | 158 | 851 | –
12 | COc1ccccc1N1CCN(CC(C(=O)N2CCCCC2)c2ccccc2)CC1 (stereo not shown) [Example 33, 1-{3-{1-[4-(2-methoxyphenyl)piperazinyl]}-2-phenylpropionyl}piperidine] | 8 | – | – | – | –
13 | COc1ccccc1N1CCN(CC(C(=O)N2CCCCCC2)c2ccccc2)CC1 (stereo not shown) [Example 34, 2,3,4,5,6,7-hexahydro-1-{3-{1-[4-(2-methoxyphenyl)piperazinyl]}-2-phenylpropionyl}-1H-azepine] | – | – | – | – | 9
14 | COc1ccccc1N1CCN(CC(C(=O)NC2CCCCCCC2)c2ccccc2)CC1 (stereo not shown) [Example 35] | 16.5 | – | – | – | –
15 | COc1ccccc1N1CCN(C[C@@H](NC(=O)C2CCCCC2)c2ccccc2)CC1 [Example 37, (S)-N-[2-[1-[4-(2-Methoxyphenyl)piperazinyl]]-1-phenylethyl]cyclohexanecarboxylic acid amide] | 45 | – | 25.1 | 7310 | –
16 | COc1ccccc1N1CCN(CC(OC(=O)Nc2ccccc2)c2ccccc2)CC1 (stereo not shown) [Example 39, O-[2-[1-[4-(2-Methoxyphenyl)piperazinyl]]-1-phenylethyl]-N-phenylcarbamate] | 22 | – | – | – | –
17 | COc1ccccc1N1CCN(CC(OC(=O)C2CCCCC2)c2ccccc2)CC1 (stereo not shown) [Example 40, 2-{1-[4-(2-Methoxyphenyl)piperazinyl]}-1-phenylethyl cyclohexanecarboxylate] | 78 | – | – | – | –
18 | CCOC(=O)N[C@H](CN1CCN(c2ccccc2OC)CC1)c1ccccc1 [Example 41, Ethyl(S)-N-[2-[1-[4-(2-methoxyphenyl)piperazinyl]]-1-phenylethyl]carbamate] | 88 | – | – | 2850 | –
19 | COC(=O)C(CN1CCN(c2ccccc2OC)CC1)c1ccccc1 (stereo not shown) [Example 42, Methyl 3-[1-[4-(2-methoxyphenyl)piperazinyl]]-2-phenylpropionate] | 37 | – | 126 | 988 | –
